Target: Human serum albumin (HSA) (Homo sapiens, UniProt P02768)
Assay: UV-Vis absorption titration at […] nm
Type: binding

Chain of Human serum albumin (HSA) (P02768 25-609): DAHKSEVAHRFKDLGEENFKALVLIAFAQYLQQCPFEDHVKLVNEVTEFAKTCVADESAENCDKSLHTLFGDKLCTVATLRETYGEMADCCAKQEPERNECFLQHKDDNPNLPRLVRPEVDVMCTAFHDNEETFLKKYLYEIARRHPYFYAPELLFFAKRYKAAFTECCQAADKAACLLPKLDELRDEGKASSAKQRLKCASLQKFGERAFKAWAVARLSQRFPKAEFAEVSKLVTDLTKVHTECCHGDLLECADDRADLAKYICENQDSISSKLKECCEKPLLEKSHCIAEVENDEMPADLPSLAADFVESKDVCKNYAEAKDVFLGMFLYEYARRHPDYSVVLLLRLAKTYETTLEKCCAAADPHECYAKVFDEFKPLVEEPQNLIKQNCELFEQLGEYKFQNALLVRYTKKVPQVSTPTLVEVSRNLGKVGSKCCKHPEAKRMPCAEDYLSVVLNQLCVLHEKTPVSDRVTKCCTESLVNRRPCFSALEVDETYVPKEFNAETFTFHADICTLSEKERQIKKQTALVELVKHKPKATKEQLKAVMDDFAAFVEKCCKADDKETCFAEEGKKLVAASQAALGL

## CCCc1nc2c(C)cc(-c3nc4ccccc4n3C)cc2n1Cc1ccc(-c2ccccc2C(=O)O)cc1 [TLM]
  Kd: 990 µM
